Calls of active or inactive are those of the source.
Assays:
[1] = system: Human alphaherpesvirus 3; experiment: Antiviral activity against VZV assessed as inhibition of viral replication by cell-based assay; type: functional, organism-based
[2] = system: Cytomegalovirus; experiment: Antiviral activity against CMV assessed as inhibition of viral replication by cell-based assay; type: functional, organism-based
[3] = system: SW480; experiment: Antiproliferative activity against human SW480 cells up to 100 uM by Celltiter-Glo assay; type: functional, cell-based
[4] = system: Human alphaherpesvirus 1; experiment: Antiviral activity against HSV1 assessed as inhibition of viral replication by cell-based assay; type: functional, organism-based
[5] = system: HCT cell line; experiment: Antiproliferative activity against human HCT cells up to 100 uM by Celltiter-Glo assay; type: functional, cell-based
[6] = system: A-375; experiment: Antiproliferative activity against human A375 cells up to 100 uM by Celltiter-Glo assay; type: functional, cell-based
[7] = system: Human gammaherpesvirus 4; experiment: Antiviral activity against EBV assessed as inhibition of viral replication by cell-based assay; type: functional, organism-based

Nc1ccn([C@@]23C[C@@H]2C[C@@H](CO)O3)c(=O)n1
inactive: inhibition [1] | inhibition [2] | Activity [3] | inhibition [4] | Activity [5] | Activity [6] | inhibition [7]

O=c1ccn([C@@]23C[C@@H]2C[C@@H](CO)O3)c(=O)[nH]1
inactive: inhibition [1] | inhibition [2] | Activity [3] | inhibition [4] | Activity [5] | Activity [6] | inhibition [7]

CC(C)OC(=O)[C@H](C)NP(=O)(OC[C@@H]1C[C@H]2C[C@@]2(n2ccc(=O)[nH]c2=O)O1)Oc1ccccc1 (stereo partly drawn)
inactive: inhibition [1] | inhibition [2] | Activity [3] | inhibition [4] | Activity [5] | Activity [6] | inhibition [7]

CC(C)OC(=O)[C@H](C)NP(=O)(OC[C@@H]1C[C@H]2C[C@@]2(n2ccc(N)nc2=O)O1)Oc1ccccc1 (stereo partly drawn)
inactive: inhibition [1] | inhibition [2] | Activity [3] | inhibition [4] | Activity [5] | Activity [6] | inhibition [7]

From ChEMBL document CHEMBL4330123, “Synthesis of 1',2'-methano-2',3'-dideoxynucleosides as potential antivirals” (Bioorg Med Chem Lett, 2019)
